Assay results taken from US12152029B2, “Crystalline forms of a MAGL inhibitor” (H. Lundbeck A/S, priority 2021, dated 2024).

Assays:
Type in all cases: physicochemical
[1] = Solid form conversion of solvates on heating, drying or storage (XRPD)
[2] = Dynamic vapour sorption (DVS); settings: for water uptake up to 90% RH / hygroscopicity by DVS analysis: 25° C.; for water uptake up to 90% RH: 0% RH to 90% RH; for hygroscopicity by DVS analysis: up to 90% RH; for Hygroscopicity in DVS, uptake at 90% RH: Table 3, 90% RH; for solid form by XRPD analysis after DVS analysis: after DVS cycle
Procedure: Dynamic vapour sorption (DVS) was measured using a SMS DVS Intrinsic moisture sorption analyser changing the relative humidity from 0% RH to 90% RH. The sample temperature was maintained at 25° C. The humidity was controlled by mixing streams of dry and wet nitrogen, with a total flow rate of 200 ml/min. The relative humidity was measured by a calibrated Rotronic probe (dynamic range of 1.0-100% RH), located near the sample. The weight change of the sample as a function of % RH was constantly monitored by a balance.
Typically, 5-30 mg of sample was placed in a tared mesh stainless steel basket under ambient conditions. The sample was loaded and unloaded at 40% RH and 25° C. (typical room conditions).

[3] = Stability of HCl salt forms at accelerated (elevated) conditions; settings: for Stability at elevated conditions: Table 3
Procedure: To further elucidate differences between the hydrochloride salt forms, their stability at accelerated conditions and their hygroscopicity was measured. The data are summarized in Table 3 together with the observations reported in Example 20.

[4] = Competitive slurry experiments between different forms of Compound (I) HCl salt
Procedure: Competitive slurry experiments between different form of Compound (I) HCl salt were performed to elucidate the relative thermodynamic stability between unsolvated crystalline forms of interest.
The resulting slurries were stirred for 3 hours to approach equilibrium conditions at either 5 or 50° C., 500 rpm. The following solvents and solvent combinations were utilized: EtOAc, MIBK, THF, MeCN, MeOH, and Acetone.
This dry powder mixture was mixed in a gyroscopic Turbula mixer for 2 hours. Then 50 mg aliquots of the mixture were weighed into HPLC vials and 0.5 mL of the above saturated solutions were added. The resulting suspensions were then stirred for 7 days.
The above competitive slurries were sampled after 1 and 7 days. The samples taken after 1 day were air dried and analyzed with XRPD. The samples taken after 7 days were first analyzed in wet state (covered with a Kapton film) in the XRPD and then subjected to air drying and analyzed again.

[5] = Competitive slurry experiments between Compound (I) form 1 and form 7; settings: for relative thermodynamic stability: slurry in methanol or ethanol at 5° C., room temperature and 50° C. for one week
Procedure: The relative thermodynamic stability of Compound (I) form 1 and Compound (I) form 7 was elucidated using competitive slurry experiments as detailed in the following.
Step 1: Compound (I) form 1 (150 mg) and Compound (I) form 7 (150 mg) were mixed in a 20 mL vial. 40 mg (each) of this physical mixture was placed into six 2 mL vials.
Step 2: Using the remaining 60 mg of the physical mixture, saturated solutions with methanol and ethanol, respectively, were produced. The saturated solutions were filtered off.
Step 3: 10 volumes ([…]) of each saturated solution were added to each of the six 2 mL vials mentioned in step 1.
Step 4: One vial for each solvent was kept at 5° C., room temperature and 50° C. for one week.
XRPD analysis carried out on the solids yielded a pattern substantially similar to FIG. 1 for all six vials.

[6] = Variable temperature XRPD of Compound (I) form 7; settings: VT-XRPD, heating 10° C./min
Procedure: Procedure 4 carried out under non-ambient conditions: For variable temperature (VT-XRPD) experiments the samples were prepared and analysed in an Anton Paar chromed sample holder. A heating/cooling rate of 10° C./min was used. The measurement parameters are as per the standard screening data collection method (detailed in Procedure 3 above). Measurements were taken at the following temperatures: 25, 100, 145, 150, 155, 160, 165, 170, 175, and 25° C.
Compound (I) form 7 obtained using the procedure detailed in Example 2 was subjected to variable temperature X-ray powder diffraction (VT-XRPD), as described in Example 10 (“[…]”).

[7] = DVS, listed as Compound (I) HCl form 2
[8] = DVS, listed as Compound (I) HCl form 4
[9] = DVS, listed as Compound (I) HCl form 5
[10] = DVS, listed as Compound (I) HCl form 6

## C1COCCO1.O=C(O)c1ccn(C(=O)N2CCC3(CCCN3Cc3ccc(C(F)(F)F)cc3N3CCCC3)CC2)n1 [Compound (I) 1,4-dioxane solvate form 1, 1-(1-(2-(pyrrolidin-1-yl)-4-(trifluoromethyl)benzyl)-1,8-diazaspiro[4.5]decane-8-carbonyl)-1H-pyrazole-3-carboxylic acid 1,4-dioxane solvate form 1]
[1]; two hours in a vacuum oven at room temperature
  solid form change upon drying: transforms into Compound (I) form 1 upon drying

## CC1CCCO1.Cl.O=C(O)c1ccn(C(=O)N2CCC3(CCCN3Cc3ccc(C(F)(F)F)cc3N3CCCC3)CC2)n1 [Compound (I) HCl salt 2-MeTHF solvate]
[1]; 40° C./75% RH for 7 days
  solid form change upon storage: transformed into Compound (I) HCl Form 2
[1]; 100° C. for 10 minutes
  solid form change upon drying: transformed into Compound (I) HCl salt form 4

## Cl.O=C(O)c1ccn(C(=O)N2CCC3(CCCN3Cc3ccc(C(F)(F)F)cc3N3CCCC3)CC2)n1 [Compound (I) HCl salt MIBK solvate]
[1]; drying the solid (conditions not given)
  solid form change upon drying: transforms into Compound (I) HCl salt form 2 upon drying

## Cl.O=C(O)c1ccn(C(=O)N2CCC3(CCCN3Cc3ccc(C(F)(F)F)cc3N3CCCC3)CC2)n1 [Compound (I) HCl salt form 2, 1-(1-(2-(pyrrolidin-1-yl)-4-(trifluoromethyl)benzyl)-1,8-diazaspiro[4.5]decane-8-carbonyl)-1H-pyrazole-3-carboxylic acid HCl salt form 2]
[2]; DVS
  water uptake compared with the other HCl salt forms: lowest water uptake
[2]; [7]
  water uptake up to 90% RH: 0.5 % wt
  hygroscopicity by DVS analysis: slightly hygroscopic
[2]; listed as Form 2
  Hygroscopicity in DVS, uptake at 90% RH: (0.5 wt %
[3]; listed as Form 2
  Stability at elevated conditions: No change
[3]; accelerated conditions
  stability compared with the other HCl salt forms: superior stability over Compound (I) HCl salt form 5 and form 6

## Cl.O=C(O)c1ccn(C(=O)N2CCC3(CCCN3Cc3ccc(C(F)(F)F)cc3N3CCCC3)CC2)n1 [Compound (I) HCl salt form 4, 1-(1-(2-(pyrrolidin-1-yl)-4-(trifluoromethyl)benzyl)-1,8-diazaspiro[4.5]decane-8-carbonyl)-1H-pyrazole-3-carboxylic acid HCl salt form 4]
[2]; [8]
  water uptake up to 90% RH: 1.4 % wt
  hygroscopicity by DVS analysis: slightly hygroscopic
[2]; listed as Form 4
  Hygroscopicity in DVS, uptake at 90% RH: (1.4 wt %
[3]; listed as Form 4
  Stability at elevated conditions: No change

## Cl.O=C(O)c1ccn(C(=O)N2CCC3(CCCN3Cc3ccc(C(F)(F)F)cc3N3CCCC3)CC2)n1 [Compound (I) HCl salt form 5]
[2]; [9]
  water uptake up to 90% RH: 9.2 % wt
  hygroscopicity by DVS analysis: moderately hygroscopic
[2]; listed as Form 5
  Hygroscopicity in DVS, uptake at 90% RH: (9.2 wt %

## Cl.O=C(O)c1ccn(C(=O)N2CCC3(CCCN3Cc3ccc(C(F)(F)F)cc3N3CCCC3)CC2)n1 [Compound (I) HCl salt form 6]
[2]; [10]
  water uptake up to 90% RH: 3.1 % wt
  hygroscopicity by DVS analysis: moderately hygroscopic
[2]; listed as Form 6
  Hygroscopicity in DVS, uptake at 90% RH: (3.1 wt %

## Cl.O=C(O)c1ccn(C(=O)N2CCC3(CCCN3Cc3ccc(C(F)(F)F)cc3N3CCCC3)CC2)n1 [Compound (I) HCl salt]
[4]; 5 ° C., Acetone
  XRPD ‘dry’ after 1 day: HCl salt Form 4
  XRPD ‘dry’ after 7 days: HCl salt Form 4
  XRPD ‘wet’ (Kapton film) after 7 days: metastable solvate
[4]; 5 ° C., EtOAc
  XRPD ‘dry’ after 1 day: HCl salt Form 2
  XRPD ‘dry’ after 7 days: HCl salt Form 2
  XRPD ‘wet’ (Kapton film) after 7 days: metastable solvate
[4]; 5 ° C., MIBK
  XRPD ‘wet’ (Kapton film) after 7 days: metastable solvate
[4]; 5 ° C., MeCN
  XRPD ‘dry’ after 1 day: HCl salt Form 5
  XRPD ‘dry’ after 7 days: HCl salt Form 5
  XRPD ‘wet’ (Kapton film) after 7 days: metastable solvate
[4]; 5 ° C., MeOH
  XRPD ‘wet’ (Kapton film) after 7 days: metastable solvate
[4]; 5 ° C., THF
  XRPD ‘dry’ after 1 day: HCl salt Form 4
  XRPD ‘dry’ after 7 days: HCl salt Form 4
  XRPD ‘wet’ (Kapton film) after 7 days: metastable solvate
[4]; 50 ° C., Acetone
  XRPD ‘dry’ after 1 day: HCl salt Form 2
  XRPD ‘dry’ after 7 days: HCl salt Form 2
  XRPD ‘wet’ (Kapton film) after 7 days: metastable solvate
[4]; 50 ° C., EtOAc
  XRPD ‘dry’ after 1 day: HCl salt Form 2
  XRPD ‘dry’ after 7 days: HCl salt Form 2
  XRPD ‘wet’ (Kapton film) after 7 days: metastable solvate
[4]; 50 ° C., MIBK
  XRPD ‘wet’ (Kapton film) after 7 days: metastable solvate
[4]; 50 ° C., MeCN
  XRPD ‘dry’ after 1 day: HCl salt Form 5
  XRPD ‘dry’ after 7 days: HCl salt Form 5
  XRPD ‘wet’ (Kapton film) after 7 days: metastable solvate
[4]; 50 ° C., MeOH
  XRPD ‘wet’ (Kapton film) after 7 days: metastable solvate
[4]; 50 ° C., THF
  XRPD ‘dry’ after 1 day: HCl salt Form 4
  XRPD ‘dry’ after 7 days: HCl salt Form 4
  XRPD ‘wet’ (Kapton film) after 7 days: metastable solvate

## CC(C)=O.O=C(O)c1ccn(C(=O)N2CCC3(CCCN3Cc3ccc(C(F)(F)F)cc3N3CCCC3)CC2)n1 [Compound (I) acetone solvate, 1-(1-(2-(pyrrolidin-1-yl)-4-(trifluoromethyl)benzyl)-1,8-diazaspiro[4.5]decane-8-carbonyl)-1H-pyrazole-3-carboxylic acid acetone solvate]
[1]; heating for 2 min at 175° C.
  solid form change upon heating: transforms into Compound (I) form 1 at elevated temperature

## O=C(O)c1ccn(C(=O)N2CCC3(CCCN3Cc3ccc(C(F)(F)F)cc3N3CCCC3)CC2)n1 [Compound (I) form 1, 1-(1-(2-(pyrrolidin-1-yl)-4-(trifluoromethyl)benzyl)-1,8-diazaspiro[4.5]decane-8-carbonyl)-1H-pyrazole-3-carboxylic acid]
[2]; DVS
  water uptake up to 90% RH: < 1%
  hygroscopicity by DVS analysis: largely non-hygroscopic
[2]
  solid form by XRPD analysis after DVS analysis: still Compound (I) form 1
[5]
  relative thermodynamic stability: more thermodynamically stable than Compound (I) form 7 at all temperatures tested
[5]; listed as 1-(1-(2-(pyrrolidin-1-yl)-4-(trifluoromethyl)benzyl)-1,8-diazaspiro[4.5]decane-8)
  relative thermodynamic stability: thermodynamically stable

## O=C(O)c1ccn(C(=O)N2CCC3(CCCN3Cc3ccc(C(F)(F)F)cc3N3CCCC3)CC2)n1 [Compound (I) form 7, 1-(1-(2-(pyrrolidin-1-yl)-4-(trifluoromethyl)benzyl)-1,8-diazaspiro[4.5]decane-8-carbonyl)-1H-pyrazole-3-carboxylic acid]
[2]; DVS
  water uptake up to 90% RH: ~6%
  hygroscopicity by DVS analysis: moderately hygroscopic
[2]
  solid form by XRPD analysis after DVS analysis: still Compound (I) form 7
[5]; methanol or ethanol, 5° C., room temperature, 50° C., one week
  form conversion in competitive slurry: transforms into Compound (I) form 1 at all temperatures tested
[6]
  temperature at which conversion to Compound (I) form 1 begins: 160 °C
  temperature at which exclusively Compound (I) form 1 was obtained: 170 °C
